From the NIST ThermoML archive (doi:10.1016/j.jct.2017.08.004)
Numbers after ± are expanded uncertainties.

Assay: molar heat capacity at constant pressure
Settings: 101.33 kPa

OC[C@@H](O)[C@H](O)[C@@H](O)CO [xylitol]
molar heat capacity at constant pressure [J/K/mol]
Settings	Small sample (50 mg) DSC	relaxation calorimetry
261.15 K, Crystal	182.91 ± 11	–
262.13 K, Crystal	–	182.23 ± 7.4
262.15 K, Crystal	183.56 ± 11	–
263.15 K, Crystal	184.15 ± 11	–
264.15 K, Crystal	184.93 ± 11	–
265.15 K, Crystal	185.58 ± 11	–
266.15 K, Crystal	186.01 ± 11	–
267.15 K, Crystal	186.68 ± 12	–
268.15 K, Crystal	187.58 ± 12	–
269.15 K, Crystal	188.3 ± 12	–
270 K, Crystal	–	187.42 ± 11
270.15 K, Crystal	188.75 ± 12	–
271.15 K, Crystal	189.44 ± 12	–
272.13 K, Crystal	–	189.16 ± 7.7
272.15 K, Crystal	190.09 ± 12	–
273.15 K, Crystal	190.92 ± 12	189.56 ± 12
274.15 K, Crystal	191.54 ± 12	–
275.15 K, Crystal	192.36 ± 12	–
276.15 K, Crystal	193.1 ± 12	–
277.15 K, Crystal	193.74 ± 12	–
278.15 K, Crystal	194.49 ± 12	–
279.15 K, Crystal	195.25 ± 12	–
280 K, Crystal	–	194.26 ± 12
280.15 K, Crystal	195.98 ± 12	–
281.15 K, Crystal	196.83 ± 12	–
282.15 K, Crystal	197.52 ± 12	–
282.21 K, Crystal	–	195.78 ± 8
283.15 K, Crystal	198.24 ± 12	–
284.15 K, Crystal	198.78 ± 12	–
285.15 K, Crystal	199.46 ± 12	–
286.15 K, Crystal	200.2 ± 12	–
287.15 K, Crystal	200.97 ± 12	–
288.15 K, Crystal	201.79 ± 12	–
289.15 K, Crystal	202.38 ± 12	–
290 K, Crystal	–	201.22 ± 12
290.15 K, Crystal	203.24 ± 13	–
291.15 K, Crystal	204 ± 13	–
292.15 K, Crystal	204.53 ± 13	–
292.34 K, Crystal	–	202.53 ± 8.2
293.15 K, Crystal	205.39 ± 13	–
294.15 K, Crystal	206.39 ± 13	–
295.15 K, Crystal	207.02 ± 13	–
296.15 K, Crystal	207.76 ± 13	–
297.15 K, Crystal	208.58 ± 13	–
298.15 K, Crystal	209.23 ± 13	207 ± 13
299.15 K, Crystal	209.95 ± 13	–
300 K, Crystal	–	208.32 ± 13
300.15 K, Crystal	210.89 ± 13	–
301.15 K, Crystal	211.84 ± 13	–
302.15 K, Crystal	212.55 ± 13	–
302.38 K, Crystal	–	210.13 ± 8.5
303.15 K, Crystal	213.48 ± 13	–
304.15 K, Crystal	214.26 ± 13	–
305 K, Crystal	215.28 ± 13	–
305.15 K, Crystal	215.11 ± 13	–
306.15 K, Crystal	216.14 ± 13	–
307.15 K, Crystal	217.06 ± 13	–
308.15 K, Crystal	217.82 ± 13	–
309.15 K, Crystal	218.75 ± 13	–
310 K, Crystal	219.82 ± 14	–
310.15 K, Crystal	219.97 ± 14	–
311.15 K, Crystal	220.76 ± 14	–
312.15 K, Crystal	221.67 ± 14	–
313.15 K, Crystal	222.64 ± 14	–
314.15 K, Crystal	223.41 ± 14	–
315 K, Crystal	224.06 ± 14	–
315.15 K, Crystal	224.2 ± 14	–
316.15 K, Crystal	225.05 ± 14	–
317.15 K, Crystal	225.99 ± 14	–
318.15 K, Crystal	226.72 ± 14	–
319.15 K, Crystal	227.57 ± 14	–
320 K, Crystal	228.13 ± 14	–
320.15 K, Crystal	228.44 ± 14	–
321.15 K, Crystal	229.1 ± 14	–
322.15 K, Crystal	229.81 ± 14	–
323.15 K, Crystal	230.76 ± 14	–
324.15 K, Crystal	231.54 ± 14	–
325 K, Crystal	232.15 ± 14	–
325.15 K, Crystal	232.32 ± 14	–
326.15 K, Crystal	233.13 ± 14	–
327.15 K, Crystal	234.07 ± 14	–
328.15 K, Crystal	234.91 ± 14	–
329.15 K, Crystal	235.68 ± 15	–
330 K, Crystal	236.23 ± 15	–
330.15 K, Crystal	236.5 ± 15	–
331.15 K, Crystal	237.35 ± 15	–
332.15 K, Crystal	238.2 ± 15	–
333.15 K, Crystal	238.98 ± 15	–
334.15 K, Crystal	239.74 ± 15	–
335 K, Crystal	240.51 ± 15	–
335.15 K, Crystal	240.54 ± 15	–
336.15 K, Crystal	241.37 ± 15	–
337.15 K, Crystal	242.09 ± 15	–
338.15 K, Crystal	242.99 ± 15	–
339.15 K, Crystal	244.05 ± 15	–
340 K, Crystal	245.1 ± 15	–
340.15 K, Crystal	244.86 ± 15	–
341.15 K, Crystal	245.84 ± 15	–
342.15 K, Crystal	246.78 ± 15	–
343.15 K, Crystal	247.9 ± 15	–
345 K, Crystal	250.14 ± 15	–
384.05 K, Liquid	437.55 ± 27	–
384.15 K, Liquid	437.54 ± 27	–
385 K, Liquid	437.31 ± 27	–
385.15 K, Liquid	437.23 ± 27	–
386.15 K, Liquid	436.89 ± 27	–
387.15 K, Liquid	436.55 ± 27	–
388.15 K, Liquid	436.95 ± 27	–
389.15 K, Liquid	436.95 ± 27	–
390 K, Liquid	437.71 ± 27	–
390.15 K, Liquid	437.09 ± 27	–
391.15 K, Liquid	437.18 ± 27	–
392.15 K, Liquid	437.31 ± 27	–
393.15 K, Liquid	437.7 ± 27	–
394.15 K, Liquid	438.11 ± 27	–
395 K, Liquid	438.53 ± 27	–
395.15 K, Liquid	438.36 ± 27	–
396.15 K, Liquid	438.65 ± 27	–
397.15 K, Liquid	439 ± 27	–
398.15 K, Liquid	439.02 ± 27	–
399.15 K, Liquid	439.36 ± 27	–
400 K, Liquid	439.66 ± 27	–
400.15 K, Liquid	439.81 ± 27	–
401.15 K, Liquid	440.13 ± 27	–
402.15 K, Liquid	440.23 ± 27	–
403.15 K, Liquid	440.54 ± 27	–
404.15 K, Liquid	441 ± 27	–
405 K, Liquid	440.98 ± 27	–
405.15 K, Liquid	441.38 ± 27	–
406.15 K, Liquid	441.87 ± 27	–
407.15 K, Liquid	442.08 ± 27	–
408.15 K, Liquid	442.44 ± 27	–
409.15 K, Liquid	442.7 ± 27	–
410 K, Liquid	442.38 ± 27	–
410.15 K, Liquid	442.88 ± 27	–
411.15 K, Liquid	443.4 ± 27	–
412.15 K, Liquid	443.35 ± 27	–
413.15 K, Liquid	443.38 ± 27	–
414.15 K, Liquid	443.78 ± 27	–
415 K, Liquid	443.73 ± 27	–
415.15 K, Liquid	443.82 ± 27	–
416.15 K, Liquid	444.07 ± 27	–
417.15 K, Liquid	444.35 ± 27	–
418.15 K, Liquid	444.54 ± 27	–
419.15 K, Liquid	444.75 ± 27	–
420 K, Liquid	444.92 ± 27	–
420.15 K, Liquid	444.83 ± 27	–
421.15 K, Liquid	444.89 ± 27	–
422.15 K, Liquid	445.1 ± 27	–
423.15 K, Liquid	445.32 ± 27	–
424.15 K, Liquid	445.31 ± 27	–
425 K, Liquid	445.83 ± 27	–
425.15 K, Liquid	445.36 ± 27	–
426.15 K, Liquid	445.64 ± 27	–
427.15 K, Liquid	445.75 ± 27	–
428.15 K, Liquid	445.78 ± 27	–
429.15 K, Liquid	445.83 ± 27	–
430 K, Liquid	446.33 ± 28	–
430.15 K, Liquid	445.91 ± 27	–
431.15 K, Liquid	446.11 ± 28	–
432.15 K, Liquid	446.26 ± 28	–
433.15 K, Liquid	446.16 ± 28	–
434.15 K, Liquid	446.18 ± 28	–
435 K, Liquid	446.32 ± 28	–
435.15 K, Liquid	446.7 ± 28	–
436.15 K, Liquid	446.78 ± 28	–
437.15 K, Liquid	446.54 ± 28	–
438.15 K, Liquid	446.6 ± 28	–
